Data set [1] deals with Mus musculus. The data set can be described thus: Hypoglycemic activity in Swiss-Webster mouse assessed as change plasma glucose level at 250 mg/kg, ip after 4 hrs. The class given is functional. The conditions noted are these: route intraperitoneal.
In another data set the test system is Artemia. Put plainly: Toxicity in brine shrimp. In kind it is organism-based. The conditions noted are these: in vivo.
The test system of data set [2] is Mus musculus. The data set can be described thus: Hypoglycemic activity in Swiss-Webster mouse assessed as change plasma glucose level at 125 mg/kg, ip after 4 hrs. The class given is functional. The conditions noted are these: route intraperitoneal.
The nature of data set [3]: Acute toxicity in po dosed mouse. The class given is organism-based. The conditions noted are these: in vivo.
The species named for data set [4] is Homo sapiens. Put plainly: Antihypercholesterolemic activity in patient with familial hypercholesterolemia assessed as decrease in plasma cholesterol at 2250 mg/day in 3 divided doses for 8 weeks. In kind it is functional. More on the design: scale not given: the % may be the effect or the level left.
The species entered for data set [5] is Homo sapiens. Put plainly: Antihypercholesterolemic activity in patient with familial hypercholesterolemia assessed as decrease in plasma cholesterol at 3000 mg/day in 3 divided doses for 8 weeks. In kind it is functional. Also on record: scale not given: the % may be the effect or the level left.
Data set [6] concerns Mus musculus. Put plainly: Hypoglycemic activity in Swiss-Webster mouse assessed as change plasma glucose level at 62.5 mg/kg, ip after 4 hrs. The settings on record: route intraperitoneal. The class given is functional.
For data set [7], the species on record is Homo sapiens. The data set can be described thus: Toxicity in patient with familial hypercholesterolemia at 750 to 2250 mg/day in 3 divided doses for 8 weeks. The settings on record: in vivo, 1344 h. In kind it is organism-based.
A short description of data set [8]: Acute toxicity in ip dosed mouse. In kind it is organism-based. The conditions noted are these: in vivo.

Counter-ions that a name gives are not always drawn.

Turning to `COC(=O)CC(O)(CC(=O)OC)C(=O)OC`, the Activity in the data set with Mus musculus [1] stood at 29%.
As for `Cc1cn([C@H]2C[C@H](O)[C@@H](CO)O2)c(=O)[nH]c1=O` [DOXRIBTIMINE], the LC50 in the data set on Artemia is above 1000 ppm. In addition, the Activity with Mus musculus [1] is reported as 25.5%.
As to `COC(=O)CC(O)(CC(=O)O)C(=O)OC` (stereo not drawn), in the data set with Mus musculus [1], the Activity came out at 35.8%.
As for `COC(=O)C(O)(CC(=O)O)CC(=O)O`, in the data set on Mus musculus [1], the Activity is recorded as -7.4%.
For the compound `CCOC(=O)CC(O)(CC(=O)OCC)C(=O)OCC` [TRIETHYL CITRATE], the Activity with Mus musculus [1] is on record as -13.6%.
Turning to `CCOC(=O)CC(O)(CC(=O)O)C(=O)OCC` (stereo not drawn), the Activity with Mus musculus [1] was -17.3%.
With `CC(O)(CC(=O)O)CC(=O)O` [MEGLUTOL], the Activity was -21% in the data set with Mus musculus [2]; 11% in the data set listed under Homo sapiens [4]; 13% in the data set filed under Homo sapiens [5]; -41.7% in the data set with Mus musculus [1]; 7.9% in the data set on Mus musculus [6]; “Non-toxic” in the data set filed under Homo sapiens [7]. For the same compound, the LD50 in [3] was 7330 mg/kg; in [8], 3230 mg/kg. For the same compound, the LC50 with Artemia stood at 228 ppm.
`COc1cc(-c2oc3cc(O[C@@H]4O[C@H](CO)[C@@H](O)[C@H](O)[C@H]4O)c(OC)c(O)c3c(=O)c2OC)cc(OC)c1O`: in the data set on Artemia, the LC50 is 420 ppm. Besides, in the data set with Mus musculus [1], the Activity is given as -1%.
`O=C(O)CC(O)(CC(=O)O)C(=O)O` [CITRIC ACID]: the LC50 with Artemia is given as 50 ppm. In addition, the Activity with Mus musculus [1] was 47.3%.
Consider `O=C(O)CCC(=O)O` [SUCCINIC ACID], for which the LC50 with Artemia came out at 40 ppm. The Activity in the data set on Mus musculus [1] was 9.9%.
On to `CCOC(=O)C(O)(CC(=O)O)CC(=O)O`, for which the Activity in the data set with Mus musculus [1] is given as -6.6%.
